Measurements as given in PubChem BioAssay AID2842 (Southern Research Institute, 2010).
≈ marks a conversion by molar mass, not a printed value.

What follows are compounds tested on M. tuberculosis H37Rv growth inhibition (assay: Mycobacterium tuberculosis H37Rv growth inhibition, putative kinase inhibitor library, confirmatory dose response (AID 2842);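 further: bacteria incubated one week before Alamar blue readout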).

Structure (SMILES)	IC90
Cc1cccc(C(=O)Nc2nnc(-c3cc(C)ccc3C)o2)c1	3.39 µg/mL (≈ 11 µM)
COC(=O)c1c(NC(=O)c2cc3ccccc3cc2OC)sc2c1CC(C)(C)NC2(C)C	31.8 µg/mL (≈ 70.2 µM)
CCOc1ccc(NCCCn2c(C)cn3c4c(=O)[nH]c(=O)n(C)c4nc23)cc1	20.5 µg/mL (≈ 51.7 µM)
CC(C)CCNC(=O)c1c(O)nc2sccn2c1=O	13.1 µg/mL (≈ 46.6 µM)
O=C(c1ccc(NC2=C(Cl)C(=O)N(Cc3ccccc3)C2=O)cc1)N1CCCCCC1	11.2 µg/mL (≈ 25.5 µM)
COc1cc(-c2nnc(NC(=O)C(C)(C)C)o2)cc(OC)c1OC	14.5 µg/mL (≈ 43.1 µM)
O=C(COc1ccc2ccccc2c1)Nc1nnc2n1CCS2	23.6 µg/mL (≈ 72.2 µM)
CS(=O)(=O)c1ccc2nc(Nc3nc4ccc(Cl)cc4s3)sc2c1	9.7 µg/mL (≈ 24.5 µM)
O=C(Cc1ccc(F)cc1)N(CCCn1ccnc1)c1nc2c(F)cccc2s1	3.66 µg/mL (≈ 8.87 µM)
COc1ccc(-c2nnc3c4cc(OC)c(OC)cc4n(Cc4ccc(C)cc4)cc2-3)cc1	95.4 µg/mL (≈ 217 µM)
CN1CCc2c(sc(NC(=O)c3ccc4ccccc4c3)c2C(N)=O)C1	11.9 µg/mL (≈ 32.5 µM)
CCOc1cccc2sc(NC(=O)c3ccc(Cl)cc3Cl)nc12	11.6 µg/mL (≈ 31.5 µM)
COc1cccc(-c2nnc(NC(=O)c3ccc(Cl)cc3)o2)c1	33.8 µg/mL (≈ 102 µM)
Cc1cc(Nc2ccc(C)c(C)c2)n2ncc(-c3ccccc3)c2n1	3.44 µg/mL (≈ 10.5 µM)
COc1ccc2nc(N(CCCn3ccnc3)C(=O)c3cccc(OC)c3OC)sc2c1	11.3 µg/mL (≈ 24.9 µM)
Cc1ccc(C)c(-c2nnc(NC(=O)c3ccccc3S(C)(=O)=O)o2)c1	19.3 µg/mL (≈ 52 µM)
Cc1ccc2sc(N(CCN(C)C)C(=O)c3cccc4ccccc34)nc2c1C	11.8 µg/mL (≈ 29.2 µM)
CCOC(=O)c1c(NC(=O)Cc2cccc3ccccc23)sc2c1CC(C)(C)NC2(C)C	2.08 µg/mL (≈ 4.62 µM)
O=C(c1ccco1)N(CCCn1ccnc1)c1nc2ccccc2s1	4.28 µg/mL (≈ 12.1 µM)
Cc1ccc(C)c(-c2nnc(NC(=O)C3=COCCO3)o2)c1	< 0.2 µg/mL
CC(C)C(=O)Nc1nnc(-c2ccc(Br)cc2)o1	1.24 µg/mL (≈ 4 µM)
CC(C)N1CCc2c(sc(NC(=O)c3nc4ccccc4s3)c2C(N)=O)C1	12.9 µg/mL (≈ 32.3 µM)

Structure (SMILES)	IC90
Cc1ccc(-c2nnc(NC(=O)c3c(F)cccc3F)o2)c(C)c1	1.25 µg/mL (≈ 3.8 µM)
Cc1ccc(C)c2sc(N(CCCn3ccnc3)C(=O)COc3ccccc3)nc12	6.05 µg/mL (≈ 14.4 µM)
C=CCOC(=O)COc1ccc2c(C)c(-c3ccccc3)c(=O)oc2c1	0.85 µg/mL (≈ 2.43 µM)
COc1ccc(-c2nnc3c4cc(OC)c(OC)cc4n(Cc4ccccc4OC)cc2-3)cc1	5.67 µg/mL (≈ 12.4 µM)
CCOC(=O)N1CCc2c(sc(NC(=O)c3ccco3)c2-c2nc3ccccc3s2)C1	50.2 µg/mL (≈ 111 µM)
CCOC(=O)N1CCc2c(sc(NC(=O)c3ccc(F)cc3)c2C(N)=O)C1	1.89 µg/mL (≈ 4.83 µM)
COc1ccc(Cn2cc(C(=O)c3ccc(C)cc3)c(=O)c3cc(OC)c(OC)cc32)cc1	7.05 µg/mL (≈ 15.9 µM)
CC(C)(C)c1ccc(C(=O)Nc2nnc(-c3ccco3)o2)cc1	1.18 µg/mL (≈ 3.79 µM)
O=C(NNc1nc2c(Cl)cccc2s1)c1coc2ccccc2c1=O	11.1 µg/mL (≈ 29.9 µM)
CCOC(=O)c1sc(Nc2nc3ccc(OC)cc3s2)cc1C	83.8 µg/mL (≈ 240 µM)
Cc1ccc(C)c(-c2nnc(NC(=O)Cc3cccc4ccccc34)o2)c1	6.3 µg/mL (≈ 17.6 µM)
CC(C)N1CCc2c(sc(NC(=O)c3ccc(Oc4ccccc4)cc3)c2C(N)=O)C1	12.5 µg/mL (≈ 28.7 µM)
CCOC(=O)c1cnc2ccc(OCC)cc2c1Nc1cccc(C)c1	14.1 µg/mL (≈ 40.3 µM)
CCOC(=O)c1c(NC(=O)CCl)sc2c1CCCC2	29.8 µg/mL (≈ 98.8 µM)
CCN1C(=O)c2cccc3c(NC(=O)c4ccc(S(=O)(=O)N(C)C)cc4)ccc1c23	24.2 µg/mL (≈ 57.2 µM)
O=C(CSc1ncnc2c1nnn2Cc1ccc(F)cc1)N1CCOCC1	19.8 µg/mL (≈ 50.9 µM)
Fc1cccc2sc(Nc3nc(-c4cccs4)cs3)nc12	25.4 µg/mL (≈ 76 µM)
COc1cc2ccccc2cc1C(=O)Nc1nnc(-c2cc(C)ccc2C)o1	1.23 µg/mL (≈ 3.29 µM)
COc1ccc(C(=O)/C=C2\C(=O)Nc3ccccc32)cc1	38.6 µg/mL (≈ 138 µM)
Cc1ccc(-c2nnc(NC(=O)c3ccc(Br)s3)o2)c(C)c1	2.17 µg/mL (≈ 5.74 µM)
COc1ccc2nc(Nc3nc(-c4cccs4)cs3)sc2c1	37.8 µg/mL (≈ 109 µM)
COc1cc(OC)cc(C(=O)Nc2nnc(-c3ccc(Br)cc3)o2)c1	52.3 µg/mL (≈ 129 µM)

Structure (SMILES)	IC90
CCOC(=O)N1CCc2c(sc(NC(=O)CCSc3ccccc3)c2C(N)=O)C1	8.5 µg/mL (≈ 19.6 µM)
CC1Cc2cc(-c3nn(-c4ccccc4)cc3/C=C3\SC(=S)NC3=O)ccc2O1 (stereo not given)	1.79 µg/mL (≈ 4.27 µM)
O=C(Nc1nnc(-c2cccs2)o1)c1nc2ccccc2s1	2.98 µg/mL (≈ 9.07 µM)
CC(C)(C)/C(O)=C(/C#N)c1nc2ccccc2[nH]1	16.6 µg/mL (≈ 68.6 µM)
Cc1ccc2sc(N(CCCn3ccnc3)C(=O)c3ccc(F)cc3)nc2c1C	3.68 µg/mL (≈ 9.01 µM)
Cc1nc2ccc(NC(=O)Nc3cccc(Cl)c3)cc2s1	22.3 µg/mL (≈ 70.1 µM)
O=C(Nc1nnc(-c2ccc(F)cc2)o1)c1cccc(C(F)(F)F)c1	11.7 µg/mL (≈ 33.4 µM)
O=C(Nc1nnc(C2=COCCO2)o1)c1cccc(Cl)c1	3.49 µg/mL (≈ 11.3 µM)
CC(C)CCn1c(NCCc2ccccc2)nc2c1c(=O)n(C)c(=O)n2C	11 µg/mL (≈ 29.9 µM)
CCOC(=O)N1CCc2c(sc(NC(=O)CCOc3ccccc3)c2C(N)=O)C1	12.4 µg/mL (≈ 29.7 µM)
O=C(Nc1nc(-c2cccs2)c(C(=O)C(F)(F)F)s1)c1cc(-c2ccccc2)nc2ccccc12	24.4 µg/mL (≈ 47.9 µM)
COc1cccc(-c2csc(NC(=O)C3CCCCC3)n2)c1	19.8 µg/mL (≈ 62.6 µM)
O=C(Nc1nnc(-c2ccc3c(c2)CCCC3)o1)c1ccc([N+](=O)[O-])o1	10.6 µg/mL (≈ 29.9 µM)
Cc1ccc(C)c(-c2nnc(NC(=O)c3cccc(Cl)c3)o2)c1	16.3 µg/mL (≈ 49.8 µM)
c1ccc(-c2csc(Nc3nc4cc5c(cc4s3)OCO5)n2)nc1	1.79 µg/mL (≈ 5.05 µM)
Cc1ccc(NCCn2c(C)cn3c4c(=O)[nH]c(=O)n(C)c4nc23)cc1	15.1 µg/mL (≈ 42.9 µM)
CCOc1ccc2nc(N(CCCn3ccnc3)C(=O)Cc3ccc(F)cc3)sc2c1	3.05 µg/mL (≈ 6.96 µM)
O=C(NNc1nc2c(F)cccc2s1)c1cc2ccccc2oc1=O	8.19 µg/mL (≈ 23 µM)
O=C(NNc1nc2ccc(Cl)cc2s1)c1cc(-c2cccs2)nc2ccccc12	30.9 µg/mL (≈ 70.8 µM)
CCc1ccc(Cc2cnc(NC(=O)c3c(C)coc3C)s2)cc1	7.42 µg/mL (≈ 21.8 µM)
O=C(Nc1ccc(I)cc1)c1ccc([N+](=O)[O-])s1	< 0.2 µg/mL
CSc1ccccc1-c1nnc(NC(=O)c2cc([N+](=O)[O-])ccc2Cl)o1	2.12 µg/mL (≈ 5.42 µM)

Structure (SMILES)	IC90
CC(=O)Nc1nnc(-c2cc(C)ccc2C)o1	20.2 µg/mL (≈ 87.3 µM)
O=C(OCc1nc2ccccc2s1)c1ccc(C(=O)c2ccccc2)cc1	17.3 µg/mL (≈ 46.2 µM)
CCOC(=O)/C=C/CSc1nc2sc3c(c2c(=O)[nH]1)CCCC3	12.8 µg/mL (≈ 36.6 µM)
CC1CCc2c(sc(Nc3nc4c(F)cccc4s3)c2C(N)=O)C1 (stereo not given)	8.58 µg/mL (≈ 23.7 µM)
O=C(O)c1ccccc1NC1=C(Cl)C(=O)N(c2cccc(Cl)c2)C1=O	21.3 µg/mL (≈ 56.5 µM)
COc1ccccc1N1CCN(c2nc(Nc3ccc(F)cc3)c3nccnc3n2)CC1	27.6 µg/mL (≈ 63.9 µM)
COc1ccc(-c2noc(-c3cc4ccccc4oc3=Nc3ccc(Br)cc3)n2)cc1	13.3 µg/mL (≈ 28.1 µM)
Cc1nc2c(ccc3nc(NC(=O)c4ccco4)sc32)s1	35 µg/mL (≈ 111 µM)
CCOC(=O)N1CCc2c(sc(NC(=O)c3ccc(Oc4ccccc4)cc3)c2C(N)=O)C1	0.98 µg/mL (≈ 2.11 µM)
COc1ccc(C2CC(c3c(-c4ccccc4)c4cc(Br)ccc4[nH]c3=O)=NN2C(=O)c2ccccc2)cc1 (stereo not given)	1.07 µg/mL (≈ 1.85 µM)
O=C(Nc1cccc(Cl)c1)c1cccc2nc3ccccc3nc12	4.6 µg/mL (≈ 13.8 µM)
O=C(CSc1nc(-c2cccc(F)c2)[nH]c1-c1ccccc1)Nc1ccc2c(c1)OCCO2	7.87 µg/mL (≈ 17.1 µM)
O=C(CSc1nc(-c2cccc(F)c2)[nH]c1-c1ccccc1)Nc1ccc2c(c1)OCO2	5.1 µg/mL (≈ 11.4 µM)
O=C(Nc1nnc(-c2ccc3c(c2)CCCC3)o1)c1ccccc1	7.25 µg/mL (≈ 22.7 µM)
Cc1nc2ccccc2c(=O)n1-c1cccc(NC(=O)c2cc([N+](=O)[O-])cc([N+](=O)[O-])c2)c1	27.8 µg/mL (≈ 62.5 µM)
COc1ccc(OC)c(-c2csc(NC(=O)c3ccc([N+](=O)[O-])o3)n2)c1	27.1 µg/mL (≈ 72.2 µM)
Cc1cccc(-c2nc(SCC(=O)Nc3ccc4c(c3)OCO4)c(-c3ccccc3)[nH]2)c1	9.98 µg/mL (≈ 22.5 µM)
COc1ccccc1N1CCN(c2nc(Nc3ccc(C)c(C)c3)c3nccnc3n2)CC1	1.68 µg/mL (≈ 3.8 µM)
Cc1ccc2nc(N(CCCn3ccnc3)C(=O)c3ccco3)sc2c1	0.48 µg/mL (≈ 1.31 µM)
